Reference: ChEMBL document CHEMBL1201862, “PubChem BioAssay data set” (2004)
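Values below derive from 48-hour exposures of cells grown in 96-well plates, with endpoints linearly interpolated between the two concentrations bracketing the appropriate inhibition level. Here, GI50 denotes the concentration required for 50% inhibition of growth.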 Active and inactive are the calls of the source. Rule as the data show it: active = GI50 up to about 1.1 µM and inactive = higher.

Tests used:
Test in all cases: NCI-60 cell line screen, 48 h
SK-MEL-28 = system: SK-MEL-28
SK-OV-3 = system: SK-OV-3
KM12 = system: KM12
SNB-78 = system: SNB-78
HCT-116 = system: HCT-116
U-251 = system: U-251
OVCAR-5 = system: OVCAR-5
A549 = system: A549
Malme-3M = system: Malme-3M
LOX IMVI = system: LOX IMVI
HCC 2998 = system: HCC 2998
UACC-257 = system: UACC-257
A498 = system: A498
SK-MEL-2 = system: SK-MEL-2
RPMI-8226 = system: RPMI-8226
SF-539 = system: SF-539
TK-10 = system: TK-10
NCI-H522 = system: NCI-H522

Measured: GI50

c1ccc(C(c2ccccc2)c2ccncc2)cc1
inactive: SK-MEL-28 > 100 µM | SK-OV-3 > 100 µM | KM12 > 100 µM | SNB-78 > 100 µM | HCT-116 > 100 µM | U-251 > 100 µM | OVCAR-5 > 100 µM | A549 > 100 µM | Malme-3M > 100 µM | LOX IMVI > 100 µM | HCC 2998 61.7 µM | UACC-257 61 µM | A498 > 100 µM | SK-MEL-2 > 100 µM | RPMI-8226 > 100 µM | SF-539 > 100 µM | TK-10 > 100 µM

Cc1cc(C)nc(NS(=O)(=O)c2ccc(Nc3c4ccccc4nc4c(C(=O)Nc5ccc(S(N)(=O)=O)cc5)cccc34)cc2)n1
inactive: SK-MEL-28 83.9 µM | SK-OV-3 11.8 µM | KM12 63.7 µM | SNB-78 > 100 µM | HCT-116 83.8 µM | U-251 58.3 µM | OVCAR-5 > 100 µM | A549 > 100 µM | Malme-3M > 100 µM | LOX IMVI 75.9 µM | UACC-257 > 100 µM | A498 43.3 µM | SK-MEL-2 > 100 µM | RPMI-8226 > 100 µM | NCI-H522 30.8 µM | SF-539 > 100 µM | TK-10 > 10 µM

CC(C)(C)c1ccc(OCCOCCOc2ccc(C(C)(C)C)cc2S(=O)(=O)Nc2ccc([N+](=O)[O-])cc2)c(S(=O)(=O)Nc2ccc([N+](=O)[O-])cc2)c1
inactive: SK-MEL-28 15.5 µM | SK-OV-3 > 100 µM | KM12 7.53 µM | SNB-78 15.2 µM | HCT-116 4.86 µM | U-251 7.28 µM | OVCAR-5 > 100 µM | A549 4.42 µM | Malme-3M 83.9 µM | LOX IMVI 23.4 µM | HCC 2998 8.73 µM | UACC-257 42.1 µM | A498 8.15 µM | SK-MEL-2 8.07 µM | SF-539 > 100 µM | TK-10 5.64 µM

CC(=O)OC1CCC2C(=CCC3C2(C)C(=O)CC2(C)C(C4(C)OC(C(C)C)=CC4=O)C(O)CC32C)C1(C)C (stereo not drawn)
inactive: SK-OV-3 35.7 µM | KM12 > 10 µM | SNB-78 78.3 µM | HCT-116 > 10 µM | U-251 39.4 µM | OVCAR-5 > 100 µM | A549 31.6 µM | Malme-3M 21.5 µM | A498 > 100 µM | SK-MEL-2 27.1 µM | RPMI-8226 22 µM | NCI-H522 35.5 µM | SF-539 18.1 µM

CC(O)C(NC(=O)c1ccccc1)C(=O)N(Cc1ccccc1)Cc1ccccc1 (stereo not drawn)
inactive: SK-MEL-28 > 100 µM | SK-OV-3 > 100 µM | KM12 > 100 µM | SNB-78 > 100 µM | U-251 > 100 µM | OVCAR-5 > 100 µM | A549 80.9 µM | Malme-3M > 100 µM | LOX IMVI > 100 µM | HCC 2998 > 100 µM | UACC-257 80.4 µM | A498 69.3 µM | SK-MEL-2 > 100 µM | RPMI-8226 28.9 µM | NCI-H522 7.03 µM | SF-539 > 100 µM | TK-10 > 100 µM

Cc1ccc(Sc2ccccc2N)cc1
inactive: SK-MEL-28 67 µM | SK-OV-3 > 100 µM | KM12 25.5 µM | SNB-78 84.7 µM | HCT-116 35.6 µM | U-251 67.3 µM | OVCAR-5 > 100 µM | A549 39.3 µM | Malme-3M 46.5 µM | LOX IMVI 36.8 µM | HCC 2998 40.8 µM | UACC-257 33.4 µM | A498 30.8 µM | SK-MEL-2 35.7 µM | RPMI-8226 19.3 µM | NCI-H522 14.8 µM | SF-539 29.5 µM | TK-10 70.5 µM

Oc1cc2c(cc1O)-c1[nH]ncc1CC2
inactive: SK-MEL-28 58.3 µM | SK-OV-3 22.5 µM | KM12 49.5 µM | SNB-78 80.4 µM | HCT-116 51.1 µM | U-251 18.2 µM | OVCAR-5 63.4 µM | A549 42.4 µM | Malme-3M 59.8 µM | LOX IMVI 33.5 µM | HCC 2998 22.4 µM | UACC-257 58.7 µM | A498 25.4 µM | SK-MEL-2 64.9 µM | NCI-H522 11.7 µM | SF-539 22.4 µM | TK-10 75 µM

CCOC(=O)NC/C=C/CO
inactive: SK-MEL-28 > 100 µM | SK-OV-3 > 100 µM | KM12 > 100 µM | SNB-78 > 100 µM | HCT-116 > 100 µM | U-251 > 100 µM | A549 > 100 µM | Malme-3M > 100 µM | HCC 2998 > 100 µM | UACC-257 > 100 µM | A498 > 100 µM | SK-MEL-2 > 100 µM | RPMI-8226 > 100 µM | NCI-H522 > 100 µM | SF-539 > 100 µM | TK-10 > 100 µM

Cc1cc2occ(-c3ccc(Cl)cc3)c2c(=O)o1
inactive: SK-MEL-28 > 100 µM | SK-OV-3 > 100 µM | KM12 > 100 µM | SNB-78 > 100 µM | HCT-116 > 100 µM | U-251 > 100 µM | OVCAR-5 > 100 µM | A549 > 100 µM | Malme-3M > 100 µM | LOX IMVI 72.8 µM | UACC-257 > 100 µM | A498 > 100 µM | SK-MEL-2 > 100 µM | RPMI-8226 61.4 µM | NCI-H522 66.5 µM | SF-539 > 100 µM | TK-10 > 100 µM

CC1OC(CC2C=CCc3c(O)c4c(c(O)c32)C(=O)c2ccccc2C4=O)CC(NC(=O)C(F)(F)F)C1O (stereo not drawn)
inactive: SK-MEL-28 4.55 µM | SK-OV-3 10.2 µM | KM12 15.9 µM | SNB-78 4.18 µM | HCT-116 3.13 µM | U-251 3.94 µM | OVCAR-5 42.8 µM | Malme-3M 3.12 µM | LOX IMVI 6.73 µM | HCC 2998 29.4 µM | UACC-257 7.93 µM | A498 4.69 µM | SK-MEL-2 6.87 µM | RPMI-8226 4.28 µM | NCI-H522 18.1 µM | SF-539 3.95 µM | TK-10 2.29 µM

COc1ccccc1/C=C(\NC(=O)c1ccccc1)c1nc2ccccc2[nH]1
inactive: SK-MEL-28 36.9 µM | SK-OV-3 51.1 µM | KM12 32.6 µM | SNB-78 53.3 µM | HCT-116 34 µM | U-251 47.2 µM | OVCAR-5 > 100 µM | A549 46.8 µM | Malme-3M 95.7 µM | LOX IMVI 52.4 µM | UACC-257 31 µM | A498 56 µM | SK-MEL-2 27.4 µM | RPMI-8226 17.6 µM | NCI-H522 30.3 µM | SF-539 53.7 µM | TK-10 39 µM

CC(CCC[C@H](C)CO)[C@H]1[C@@H](O)C(O)C2[C@@H]3C[C@@H](O)C4(O)C[C@@H](O)CC[C@]4(C)C3CC[C@@]21C (stereo partly drawn)
inactive: SK-MEL-28 > 100 µM | SK-OV-3 > 100 µM | KM12 > 100 µM | SNB-78 > 100 µM | HCT-116 > 100 µM | U-251 > 100 µM | A549 > 100 µM | Malme-3M > 100 µM | LOX IMVI > 100 µM | HCC 2998 > 100 µM | UACC-257 > 100 µM | SK-MEL-2 > 100 µM | RPMI-8226 > 100 µM | NCI-H522 > 100 µM | SF-539 > 100 µM | TK-10 > 100 µM
